These results are taken from ChEMBL document CHEMBL1158165, “Correlation between reduction potentials and inhibitions of Epstein-Barr virus activation by anthraquinone derivatives” (Bioorg Med Chem Lett, 2008).

What all share (type): cell-based
In data set [1] the test system is Raji. Description: Inhibition of 12-O-tetradecanoylphorbol-13-acetate induced EBV-early antigen activation in human Raji cells. As to conditions: human gammaherpesvirus 4.
A short description of data set [2]: Cytotoxicity against human Raji cells assessed as cell viability at 1000 molar ratio. As to conditions: read-out: Activity.
The subject of data set [3] is Raji. Description: Inhibition of 12-O-tetradecanoylphorbol-13-acetate induced EBV-early antigen activation in human Raji cells at 1000 molar ratio relative to control. Set-up: scale not given: the % may be the effect or the level left. As to conditions: human gammaherpesvirus 4.
Data set [4] relates to Raji. Description: Inhibition of 12-O-tetradecanoylphorbol-13-acetate induced EBV-early antigen activation in human Raji cells at 500 molar ratio relative to control. Also noted: scale not given: the % may be the effect or the level left. As to conditions: human gammaherpesvirus 4.
Data set [5] has as its system Raji. As to the kind of experiment: Inhibition of 12-O-tetradecanoylphorbol-13-acetate induced EBV-early antigen activation in human Raji cells at 100 molar ratio relative to control. As to conditions: human gammaherpesvirus 4. Also noted: scale not given: the % may be the effect or the level left.
Data set [6] deals with Raji. Description: Inhibition of 12-O-tetradecanoylphorbol-13-acetate induced EBV-early antigen activation in human Raji cells at 10 molar ratio relative to control. Also noted: scale not given: the % may be the effect or the level left. As to conditions: human gammaherpesvirus 4.

In the case of `O=C1c2cccc(O)c2C(=O)c2c1cc(CO)c(-c1c(CO)cc3c(c1O)C(=O)c1c(O)cccc1C3=O)c2O`, the logIC50 with Raji [1] was found to be 2.78.
Turning to `COc1cc2c(c(O)c1C)C(=O)c1c(O)cc(C)cc1C2=O`, the logIC50 in the data set on Raji [1] was 2.48. The viability at 1000 molar ratio in data set [2] stood at 60%. Further, the Activity in the data set on Raji [3] worked out at 1.2%; in the data set with Raji [4], 23.2%; with Raji [5], 50%; in the data set on Raji [6], 93%.
In the data set with Raji [1], `O=C1c2ccccc2C(=O)c2ccccc21` came in with a logIC50 of 3.04.
Molecule `COc1cc(C)cc2c1C(=O)c1c(O)cc(O)cc1C2=O` [1-O-METHYLEMODIN] displayed a logIC50 in the data set with Raji [1] of 2.49. Besides, the viability at 1000 molar ratio in data set [2] was 60%. Further, the Activity with Raji [3] turned out to be 1.1%; in the data set on Raji [4], 24.1%; in the data set on Raji [5], 49.8%; in the data set with Raji [6], 94.1%.
On to `COc1cc2c(c(O)c1OC)C(=O)c1c(cc(C)c(O)c1OC)C2=O`, for which the logIC50 in the data set on Raji [1] is 2.73.
Same read-out and setting: the figure for `COc1cc(C)cc2c1C(=O)c1c(O)cccc1C2=O` is 2.82; for `Cc1cc(O)c2c(c1)C(=O)c1cccc(O)c1C2=O` it is 2.68; for `Cc1ccc2c(c1O)C(=O)c1ccccc1C2=O` it is 2.72.
On the same count and under the same terms, the figure for `O=C1c2cccc(O)c2C(=O)c2c(O)cc(CO)cc21` is 2.66.
Same read-out and setting: for `COc1cc2c(c(OC)c1OC)C(=O)c1c(cc(C)c(O)c1OC)C2=O` the value was 2.73.
In turn, `CCc1ccc2c(c1)C(=O)c1ccccc1C2=O` displayed a logIC50 with Raji [1] of 2.7.
On the same count and under the same terms, the figure for `CC(=O)Oc1cc(O)cc2c1C(=O)c1c(O)cc(C)cc1C2=O` is 2.69.
For `COc1cc(O)cc2c1C(=O)c1c(O)cc(C)cc1C2=O` [QUESTIN], the logIC50 in the data set on Raji [1] was found to be 2.52. For the same molecule, the viability at 1000 molar ratio in data set [2] was 60%. The Activity with Raji [3] stood at 3.7%; with Raji [4] it was 25.6%; in the data set on Raji [5], 52.8%; in the data set on Raji [6] it was 95.6%.
In turn, `O=C1c2ccccc2C(=O)c2c(O)cccc21` registered a logIC50 in the data set on Raji [1] of 2.77.
`Cc1cc2c(c(O)c1-c1c(C)cc3c(c1O)C(=O)c1c(O)cccc1C3=O)C(=O)c1c(O)cccc1C2=O` registered a logIC50 with Raji [1] of 2.86.
`COc1cc(C)cc2c1C(=O)c1c(OC)cc(O)cc1C2=O` returned a logIC50 in the data set with Raji [1] of 2.45. Besides, the viability at 1000 molar ratio in data set [2] worked out at 60%. Also, the Activity in the data set with Raji [3] is 0%; in the data set on Raji [4], 22%; in the data set with Raji [5], 47.3%; in the data set with Raji [6], 92.6%.
As to `CC(=O)Oc1cc(C)cc2c1C(=O)c1c(OC(C)=O)cc(O)cc1C2=O`, the logIC50 in the data set on Raji [1] turned out to be 2.7.
On the same count and under the same terms, for `Cc1cc(O)c2c(c1)C(=O)c1cc(CO)c(-c3c(O)cc4c(c3O)C(=O)c3c(O)cccc3C4=O)c(O)c1C2=O` the value was 2.8; for `CC(=O)Oc1cc(OC(C)=O)c2c(c1)C(=O)c1cc(C)cc(OC(C)=O)c1C2=O`, 2.67.
`Cc1cc2c(c(O)c1-c1c(C)cc3c(c1O)C(=O)c1c(O)cc(O)cc1C3=O)C(=O)c1c(O)cccc1C2=O` showed a logIC50 with Raji [1] of 2.8.
The same measure, in the same setting: the figure for `CC(=O)Oc1cc(OC(C)=O)c2c(c1)C(=O)c1cc(C(=O)O)cc(OC(C)=O)c1C2=O` is 2.66; for `COc1c(O)cc2c(c1O)C(=O)c1c(cc(C)c(O)c1OC)C2=O` it is 2.72.
Same read-out and setting: the figure for `Cc1ccc2c(c1)C(=O)c1ccccc1C2=O` is 2.66.
Take `COc1cc(OC)c2c(c1)C(=O)c1cc(C)cc(OC)c1C2=O`: the logIC50 in the data set with Raji [1] came to 2.41. For the same molecule, the viability at 1000 molar ratio in data set [2] is 60%. The Activity in the data set on Raji [3] was found to be 0%; with Raji [4], 21.1%; in the data set on Raji [5] it was 44%; in the data set on Raji [6], 90.1%.
Regarding `Cc1cc(O)c2c(c1)C(=O)c1cc(O)cc(O)c1C2=O` [EMODIN], in the data set with Raji [1], the logIC50 came to 2.48. The viability at 1000 molar ratio in data set [2] came out at 70%. Besides, the Activity in the data set with Raji [3] was found to be 1.5%; with Raji [4], 24.8%; in the data set on Raji [5] it was 51.6%; in the data set on Raji [6] it was 91%.
In the case of `O=C1c2cccc(O)c2C(=O)c2c(O)cccc21`, the logIC50 in the data set on Raji [1] was determined as 2.78.
On the same count and under the same terms, for `Cc1cc(O)c2c(c1)C(=O)c1cc(O)c(-c3c(C)cc4c(c3O)C(=O)c3c(O)cccc3C4=O)c(O)c1C2=O` the value was 2.83; for `COc1cc2c(c(OC)c1O)C(=O)c1c(ccc(C)c1O)C2=O`, 2.55.
The same measure, in the same setting: for `O=C1c2ccc(O)cc2C(=O)c2ccc(O)cc21` the value was 2.88.
Molecule `COc1cc(OC)c2c(c1)C(=O)c1cc(C)cc(O)c1C2=O` displayed a logIC50 with Raji [1] of 2.5. For the same molecule, the viability at 1000 molar ratio in data set [2] is 60%. Moreover, the Activity with Raji [3] amounted to 2.9%; in the data set with Raji [4] it was 24.2%; in the data set on Raji [5], 51.7%; with Raji [6] it was 94.7%.
For the molecule `Cc1cc2c(c(O)c1-c1c(C)cc3c(c1O)C(=O)c1c(O)cc(O)cc1C3=O)C(=O)c1c(O)cc(O)cc1C2=O`, the logIC50 in the data set with Raji [1] amounted to 2.7.
Molecule `COc1c(O)c(C)cc2c1C(=O)c1c(O)cccc1C2=O` [OBTUSIFOLIN] yielded a logIC50 with Raji [1] of 2.55. For the same molecule, the viability at 1000 molar ratio in data set [2] came to 60%. The Activity in the data set on Raji [3] is 4.3%; in the data set on Raji [4], 27.8%; in the data set on Raji [5] it was 54.9%; in the data set with Raji [6], 98.7%.
`COc1cc(O)c2c(c1)C(=O)c1cc(C)cc(OC)c1C2=O` showed a logIC50 with Raji [1] of 2.43. The viability at 1000 molar ratio in data set [2] came to 60%. For the same molecule, the Activity with Raji [3] worked out at 0%; in the data set with Raji [4], 21.3%; with Raji [5], 45.3%; in the data set with Raji [6] it was 91.8%.
In the data set with Raji [1], `COc1cc(O)c2c(c1)C(=O)c1cc(C)cc(O)c1C2=O` [PHYSCION] displayed a logIC50 of 2.5. The viability at 1000 molar ratio in data set [2] is 60%. Besides, the Activity in the data set with Raji [3] is 1.5%; with Raji [4], 24.7%; in the data set with Raji [5], 51.1%; in the data set on Raji [6], 94.2%.
